Laboratory results reported in patent US9205129B2, “Methods of treatment and screening assays for HIF-1α regulation” (University of Rochester, priority 2009, dated 2015).
Peptide text beside a SMILES is read from it. * marks the point of attachment. Cbz = O=C(OCc1ccccc1)*

Tests used:
HIF-1α (myc-HIF-V5) = assay: Cycloheximide pulse-chase / Western blot of myc-HIF-V5 in transfected HN33 cells; type: cell-based, mouse
Method: Cell lysates were obtained by rinsing monolayers with ice-cold PBS×1 followed by the addition of RIPA buffer containing both protease and phosphatase inhibitor cocktails (Sigma-Aldrich, St. Louis, Mo.). Samples were boiled in Laemmeli buffer and electrophoresed under reducing conditions on polyacrylamide gels. Proteins were transferred to PVDF membranes and blocked in TBS-T ([…] Tris-HCl, pH 8.0, 0.9% NaCl, and 0.1% Tween-20™) containing 5% non-fat dry milk for 1 h at room temperature. Antibodies used in this study included: NeuN (Chemicon, Temecula, Calif.; 1:500), GFP, HIF-1α (Novus Biologicals, NB-100-449 and NB-100-131, Littleton, Colo.), TUJ1 & MKP-1 (Santa Cruz Biologicals, San Diego, Calif.; 1:500) Caspase 9, cleaved caspase-3, -9, -12, and cleaved PARP (CST, Danvers, Mass.). Blots were exposed to HRP conjugated secondary antibodies (Santa Cruz Biologicals, CA) prior to chemiluminescent detection (Amersham). To resolve molecular weight changes in HIF-1α, crude lysates were run on 15% PAGE gels.
The cDNA for mouse HIF-1α was generated by RT-PCR using total cDNA from HN33.11 cultures using Superscript III according to the manufacturer's instructions using the random hexamer method (Invitrogen, Carlsbad, Calif.). PCR was performed using forward (5′-[…]-3′ (SEQ ID NO:1)) and reverse (5′-TCAG-[…]-3′ (SEQ ID NO:2)) primers as described (Chun et al., “A New HIF-1 Alpha Variant Induced by Zinc Ion Suppresses HIF-1-Mediated Hypoxic Responses,” J. Cell Sci. 114:4051-61 (2001), which is hereby incorporated by reference in its entirety), and the cDNA was sub-cloned to pCDNA3.1 and sequenced in its entirety. This sequence was sub-cloned by PCR using high fidelity polymerase and both the forward primer (5′-GCGGGATCCA […] GAA-3′ (SEQ ID NO:3)) containing a BamHI site followed by a Kozak consensus sequence and the Myc epitope tag and the reverse primer (5′-ggggcggccgcTAA CTTGATCCAAAGC […]-3′ (SEQ ID NO:4)) containing the Not I site allowing in frame ligation with the V5-6×His tag in pUB6-V5-6×HIS (Invitrogen). […]

[1] = system: human HIF-1α (HIF-V5-6×His); assay: Western blot of human HIF-1α fusion expressed in N2A line; type: cell-based; conditions: human HIF-1α fusion in N2A line treated with MG132 (FIG. 7B)
Method: (§1) FIGS. 7A-C illustrate in vitro characterization and purification of HIF-1α cleavage product. […] Effects of MKP overexpression were tested by co-expressing either empty plasmid (pSG5) or vector expressing wildtype MKP-1 (pSG5-MKPwt; compare lanes 1 vs 2 & 3). Parallel samples were also treated with the proteosome inhibitor MG132 to determine whether sub fragments could be stabilized. Full-length and c-terminal fragments were identified using the carboxy-terminal V5 tag. FIG. 7B depicts optimization of expression conditions for human HIF-V5-6×His. Full-length and the proteolytic cleavage form of human HIF-1α are observed when expressed in the mouse N2A line. Other bands are shown as present in both samples and are cross reactive contaminants with V5 antibody. FIG. 7C illustrates affinity purification of the c-terminal HIF-1α fragment using the 6×His tag resin. N2A cells were transfected with the empty (pUB6-MCS) or HIF-expressing plasmids (pUb6-hHIF) and exposed to MG132 to induce fragment accumulation.
The addition of MKPwt reduced overall levels of both full-length and C-terminal fragments. […] Bands correlating to full length (approximately 110 kDa) and the c-terminal fragment (running at approximately 48 kDa) were isolated from polyacrylamide gels and subjected to LC-MS/MS. […]

[2] = system: mouse HIF-1α (Myc-HIF-6×His-V5); assay: Western blot of V5-tagged mouse HIF-1α expressed in N2A neuroblastoma line; type: cell-based; conditions: N2A cells, 24 hours post-transfection (FIG. 7A)
Method: as §1
Cell lysates were obtained by rinsing monolayers with ice-cold PBS×1 followed by the addition of RIPA buffer containing both protease and phosphatase inhibitor cocktails (Sigma-Aldrich, St. Louis, Mo.). Samples were boiled in Laemmeli buffer and electrophoresed under reducing conditions on polyacrylamide gels. […]

HIF-1α = conditions: effect of lambda phosphatase, compared with MEK inhibitor; cited from earlier work

Row | Compound | induction of LMW-HIF-1α species (HIF-1α (myc-HIF-V5); FIG. 4D legend, HN33 lysates, CHX pulse-chase and MG132) | effect on MKP-1 mediated destabilization of HIF-1α (HIF-1α (myc-HIF-V5); HN33 cells transfected with dual-tagged vector, normoxic, cycloheximide pulse chase (FIG. 4D)) | accumulation of intermediate myc-HIF-V5 species (HIF-1α (myc-HIF-V5); HN33 cells, independent of MKP-1 levels (FIG. 4D, double asterisk)) | formation of c-terminal HIF-1α fragment [1] | detection of V5-reactive C-terminal fragment of HIF-1α [2] | reduction of HIF-1α complex doublet to a single 103 kDa band (HIF-1α)
1 | CC(C)C[C@@H](C=O)NC(=O)[C@H](CC(C)C)NC(=O)[C@H](CC(C)C)NC(=O)OCc1ccccc1 [MG132] (Cbz-Leu-Leu-Leu-aldehyde) | inducing several LMW-HIF-1α species | negate the destabilizing effect of MKP-1 | enhanced the accumulation | produced the expected c-terminal HIF-1α fragment | detected only after treatment | –
2 | COc1cccc(-c2cc(=O)c3ccccc3o2)c1N [PD98059] | – | – | – | – | – | effect mimicked
